Results from the NIST ThermoML archive (doi:10.1021/je900660x).

Columns and labels:
[1] = molar heat capacity at constant pressure; conditions: 101.33 kPa, Liquid, Large sample (1 g) DSC
[2] = for mass density / viscosity / thermal conductivity: 101.33 kPa, Liquid; for mass density: Vibrating tube method; for thermal conductivity: Hot wire method

CCCC[N+](C)(CCCC)CCCC.NCCS(=O)(=O)[O-] [N,N-dibutyl-N-methyl-1-butanaminium 2-aminoethanesulfonate]
Conditions | Glass transition temperature, [2] [°C] | mass density, [2] [kg/m3] | molar heat capacity at constant pressure, [1] [J/K/mol] | viscosity, [2] [mPa·s]
293.15 K | – | 1054.1 | 822.3 | –
298.15 K | – | 1051.1 | 826.9 | 6674
303.15 K | – | 1048.1 | 831.7 | 3965
313.15 K | – | 1041.6 | 842.5 | 1600
323.15 K | – | 1035.7 | 853.2 | 716
333.15 K | – | 1029.8 | 863.2 | 357.5
343.15 K | – | 1023.9 | 872.6 | 193.4
353.15 K | – | 1018 | 882.4 | 108.2
363.15 K | – | 1012.1 | 891.5 | 66.8
DTA | -54.23 | – | – | –

CCCC[N+](C)(CCCC)CCCC.NCCCC[C@H](N)C(=O)[O-] [N,N-dibutyl-N-methyl-1-butanaminium L-lysinate]
Conditions | Glass transition temperature, [2] [°C] | mass density, [2] [kg/m3] | molar heat capacity at constant pressure, [1] [J/K/mol] | thermal conductivity, [2] [W/m/K] | viscosity, [2] [mPa·s]
293.15 K | – | 982.9 | 817.3 | – | –
298.15 K | – | 979.7 | 823.8 | 0.171 | 2593
303.15 K | – | 976.7 | 830.8 | 0.17 | 1679
313.15 K | – | 970.7 | 845.6 | 0.169 | 741.4
323.15 K | – | 964.7 | 861.2 | 0.168 | 368.6
333.15 K | – | 958.6 | 877.7 | 0.167 | 200.2
343.15 K | – | 952.7 | 893.3 | 0.166 | 112.9
353.15 K | – | 946.8 | 909.5 | 0.165 | 68.3
363.15 K | – | 940.8 | 925.1 | – | 43.9
DTA | -59.39 | – | – | – | –

CCCC[N+](C)(CCCC)CCCC.C[C@@H](O)[C@H](N)C(=O)[O-] [N,N-dibutyl-N-methyl-1-butanaminium L-threoninate]
Conditions | Glass transition temperature, [2] [°C] | mass density, [2] [kg/m3] | molar heat capacity at constant pressure, [1] [J/K/mol] | thermal conductivity, [2] [W/m/K] | viscosity, [2] [mPa·s]
293.15 K | – | 1002.6 | 748.5 | – | –
298.15 K | – | 999.5 | 752.6 | 0.16 | 8368
303.15 K | – | 996.4 | 757.1 | 0.159 | 4916
313.15 K | – | 990 | 766.9 | 0.158 | 1845
323.15 K | – | 983.7 | 777.4 | 0.157 | 791.3
333.15 K | – | 977.7 | 789.2 | 0.156 | 377.6
343.15 K | – | 971.7 | 801 | 0.155 | 200.6
353.15 K | – | 965.7 | 811.5 | 0.154 | 110.9
363.15 K | – | 959.8 | 821.1 | – | 66.2
DTA | -51.94 | – | – | – | –

CCCC[N+](C)(CCCC)CCCC.N[C@@H](CO)C(=O)[O-] [N,N-dibutyl-N-methylbutanaminium L-serinate]
Conditions | Glass transition temperature, [2] [°C] | mass density, [2] [kg/m3] | molar heat capacity at constant pressure, [1] [J/K/mol] | thermal conductivity, [2] [W/m/K] | viscosity, [2] [mPa·s]
293.15 K | – | 1018.8 | 632.4 | – | –
298.15 K | – | 1015.7 | 634.8 | 0.169 | 10214
303.15 K | – | 1012.6 | 637.6 | 0.168 | 5845
313.15 K | – | 1006.3 | 643.6 | 0.167 | 2160
323.15 K | – | 999.9 | 651 | 0.166 | 890.7
333.15 K | – | 993.9 | 658 | 0.165 | 410.3
343.15 K | – | 987.9 | 665 | 0.164 | 207.9
353.15 K | – | 981.9 | 672.9 | 0.163 | 111.8
363.15 K | – | 975.6 | 680.8 | – | 64.3
DTA | -50.59 | – | – | – | –

CCCC[P+](CCCC)(CCCC)CCCC.NCCS(=O)(=O)[O-] [tetrabutylphosphonium 2-aminoethanesulfonate]
Conditions | Glass transition temperature, [2] [°C] | mass density, [2] [kg/m3] | molar heat capacity at constant pressure, [1] [J/K/mol] | viscosity, [2] [mPa·s]
293.15 K | – | 1030.1 | 987.7 | –
298.15 K | – | 1026.8 | 994.6 | 1019
303.15 K | – | 1023.7 | 1001.6 | 712.6
313.15 K | – | 1017.6 | 1015 | 345.5
323.15 K | – | 1011.5 | 1028.4 | 186.2
333.15 K | – | 1005.3 | 1042.6 | 106.7
343.15 K | – | 999.2 | 1057.6 | 67.5
353.15 K | – | 993.3 | 1073.7 | 44.2
363.15 K | – | 987.3 | 1088.6 | 29.6
DTA | -58.14 | – | – | –

CCCC[P+](CCCC)(CCCC)CCCC.N[C@@H](CS)C(=O)[O-] [tetrabutylphosphonium L-cysteinate]
Conditions | Glass transition temperature, [2] [°C] | mass density, [2] [kg/m3] | molar heat capacity at constant pressure, [1] [J/K/mol] | thermal conductivity, [2] [W/m/K] | viscosity, [2] [mPa·s]
293.15 K | – | 1037.2 | 913.7 | – | –
298.15 K | – | 1033.7 | 919.8 | 0.152 | 2946
303.15 K | – | 1030 | 926.6 | 0.151 | 1866
313.15 K | – | 1023.8 | 942.5 | 0.15 | 832.7
323.15 K | – | 1017.8 | 959.6 | 0.149 | 397.4
333.15 K | – | 1011.7 | 977.1 | 0.148 | 208.4
343.15 K | – | 1005.4 | 993.4 | 0.147 | 118.3
353.15 K | – | 999.1 | 1008.2 | 0.146 | 72.5
363.15 K | – | 993 | 1021.5 | – | 46.6
DTA | -29.68 | – | – | – | –

CCCC[P+](CCCC)(CCCC)CCCC.NCCCC[C@H](N)C(=O)[O-] [tetrabutylphosphonium L-lysinate]
Conditions | Glass transition temperature, [2] [°C] | mass density, [2] [kg/m3] | molar heat capacity at constant pressure, [1] [J/K/mol] | thermal conductivity, [2] [W/m/K] | viscosity, [2] [mPa·s]
293.15 K | – | 970.5 | 987.3 | – | –
298.15 K | – | 967.5 | 997.4 | 0.163 | 741
303.15 K | – | 964.4 | 1004.3 | 0.163 | 519.8
313.15 K | – | 958.4 | 1021.3 | 0.162 | 268.7
323.15 K | – | 952.3 | 1040.3 | 0.161 | 149.7
333.15 K | – | 946.2 | 1060.1 | 0.16 | 90.4
343.15 K | – | 940.3 | 1077.9 | 0.159 | 59.8
353.15 K | – | 934.4 | 1096.5 | 0.158 | 39.7
363.15 K | – | 928.6 | 1111.5 | – | 27.5
DTA | -66.7 | – | – | – | –

CCCC[P+](CCCC)(CCCC)CCCC.O=C([O-])[C@@H]1CCCN1 [tetrabutylphosphonium L-prolinate]
Conditions | Glass transition temperature, [2] [°C] | mass density, [2] [kg/m3] | molar heat capacity at constant pressure, [1] [J/K/mol] | thermal conductivity, [2] [W/m/K] | viscosity, [2] [mPa·s]
293.15 K | – | 995.7 | 838 | – | –
298.15 K | – | 992.5 | 844.2 | 0.154 | 1695
303.15 K | – | 989.1 | 850.4 | 0.153 | 1101
313.15 K | – | 983 | 864.1 | 0.152 | 483.5
323.15 K | – | 976.9 | 879.7 | 0.151 | 241.3
333.15 K | – | 970.8 | 894.8 | 0.15 | 133.1
343.15 K | – | 964.6 | 910.1 | 0.149 | 78.2
353.15 K | – | 958.6 | 925.8 | 0.148 | 49.6
363.15 K | – | 952.6 | 939.4 | – | 32.2
DTA | -65.87 | – | – | – | –

CCCC[P+](CCCC)(CCCC)CCCC.N[C@@H](CO)C(=O)[O-] [tetrabutylphosphonium L-serinate]
Conditions | Glass transition temperature, [2] [°C] | mass density, [2] [kg/m3] | molar heat capacity at constant pressure, [1] [J/K/mol] | viscosity, [2] [mPa·s]
293.15 K | – | 995.5 | 742 | –
298.15 K | – | 992.3 | 748.5 | 1143
303.15 K | – | 989.2 | 755.1 | 778.4
313.15 K | – | 983 | 765.6 | 395.4
323.15 K | – | 976.9 | 776.5 | 209.4
333.15 K | – | 970.8 | 787.4 | 122.9
343.15 K | – | 964.8 | 797.6 | 77.6
353.15 K | – | 958.9 | 807.8 | 49.7
363.15 K | – | 953 | 814.7 | 34.1
DTA | -59.38 | – | – | –

CCCC[P+](CCCC)(CCCC)CCCC.C[C@@H](O)[C@H](N)C(=O)[O-] [tetrabutylphosphonium L-threoninate]
Conditions | Glass transition temperature, [2] [°C] | mass density, [2] [kg/m3] | molar heat capacity at constant pressure, [1] [J/K/mol] | thermal conductivity, [2] [W/m/K] | viscosity, [2] [mPa·s]
293.15 K | – | 983 | 952.2 | – | –
298.15 K | – | 979.9 | 961.3 | 0.156 | 739
303.15 K | – | 976.9 | 970.7 | 0.155 | 519.8
313.15 K | – | 970.7 | 991.5 | 0.154 | 260.1
323.15 K | – | 964.6 | 1012.6 | 0.153 | 143.2
333.15 K | – | 958.5 | 1033.4 | 0.152 | 88.5
343.15 K | – | 952.5 | 1055.7 | 0.152 | 53.9
353.15 K | – | 946.6 | 1076.4 | 0.151 | 36.2
363.15 K | – | 940.7 | 1097.2 | – | 25.1
DTA | -60.72 | – | – | – | –

CC(C)[C@H](N)C(=O)[O-].CCCC[P+](CCCC)(CCCC)CCCC [tetrabutylphosphonium L-valinate]
Conditions | Glass transition temperature, [2] [°C] | mass density, [2] [kg/m3] | molar heat capacity at constant pressure, [1] [J/K/mol] | thermal conductivity, [2] [W/m/K] | viscosity, [2] [mPa·s]
293.15 K | – | – | 743.7 | – | –
298.15 K | – | – | 747.4 | – | –
303.15 K | – | – | 751.6 | – | –
313.15 K | – | 932.1 | 761.3 | 0.157 | 216.9
323.15 K | – | 926 | 771.5 | 0.156 | 120
333.15 K | – | 919.9 | 781.2 | 0.155 | 70.8
343.15 K | – | 913.9 | 791.4 | 0.154 | 44.8
353.15 K | – | 908 | 801.1 | 0.153 | 29.6
363.15 K | – | 902.1 | 810.9 | – | 20.3
DTA | -65.56 | – | – | – | –

Conditions | Normal melting temperature [°C]
[2], Crystal, DTA | 25.77
